Where a name gives a salt, the structure may show the parent alone.
Key:
[1] = Stability of the compounds in aqueous solution (percent residue by high pressure liquid chromatography); format: physicochemical; conditions: 0.5 (w/w) % in water, 40°±1° C.
Procedure: Each of the compounds of the present invention was dissolved in water to give a concentration of 0.5 (w/w) %. The aqueous solution was held at 40°±1° C. and samples were taken at given intervals. They were subjected to high pressure liquid chromatography and the percent residue was calculated for each sample by measuring the peak area ratio.
The percent residue for the compounds of the present invention after the lapse of a given period is shown in Table 2, with the value for the start of the experiment being taken as 100%.

[2] = system: mouse leukemia L1210 cells; experiment: Inhibition of in vitro growth of mouse leukemia L1210 cells; format: cell-based; conditions: 48 hours at 37° C., 5% CO2
Procedure: Leukemia L1210 cells (1×10^5 /0.2 ml) were transplanted in the intraperitoneal cavity of DBA/2 strain female mice. Four days later, a sample of the abdominal ascites was taken and centrifuged to obtain L1210 cells. These cells were suspended in an RPMI 1640 medium supplemented with fetal bovine serum and 2-mercaptoethanol to have a final concentration of 5×10^4 cells/0.9 ml.
Each of the compounds of the present invention was dissolved in the medium shown above.
A portion (0.9 ml) of the L1210 cell suspension was mixed with 0.1 ml of the test solution ranging from 0.62 to 1000 μg/ml, and the mixture was incubated in a 5% CO2 atmosphere for 48 hours at 37° C. The cell count was determined both before and after the incubation, and the concentration to inhibit the growth of L1210 cells by 50% of the control (IC50) was determined.

mouse leukemia L1210 [3] = experiment: Life extending effect against mouse leukemia L1210; format: in vivo; conditions: 9 consecutive days, >125 considered effective
Procedure: Leukemia cells L1210 (1×10^5 cells/0.2 ml) were inoculated in the intraperitoneal cavity of CDF1 -SLC female mice (6 mice per group). Two compounds of the present invention were each diluted with physiological saline in various concentrations, and starting on the day following the transplantation, each dilution was administered to the mice for 9 consecutive days in a volume of 0.1 ml 10 g (body weight).
30 Days after the inoculation, the mean survival time (day) for each treated group was calculated, and divided by the mean survival time of the control group, and multiplied by 100 to obtain the percent life prolongation (T/C). T/C values greater than 125 are considered to be effective.

rats = experiment: Toxicity in rats (decrease rate of body weight); format: in vivo, rat; conditions: intraperitoneal, once a day for 10 days, 6.25 mg/ml in 0.2 ml/100 g
Procedure: The compound No. 1 was dissolved in physiological saline (the concentration of the compound No. 1: 6.25 mg/ml). The obtained solution was administered intraperitoneally to rats once a day for 10 consecutive days in a volume of 0.2 ml/100 g (body weight).
Decrease rate of body weight of rats was determined as follows: [formula]

[4] = prior art statement; cited from earlier work
[5] = system: Gram-positive microorganisms; conditions: cited from earlier work
mouse leukemia L1210 [6] = conditions: cited from earlier work
leukemia EL-4 = conditions: cited from earlier work
Ehrlich carcinoma = conditions: cited from earlier work
Sarcoma 180 = conditions: cited from earlier work

Row | Percent residue in aqueous solution ([1]; Time 0 (taken as 100%)) [%] | Percent residue in aqueous solution ([1]; Time 12 (time unit not given)) [%] | Percent residue in aqueous solution ([1]; Time 24 (time unit not given)) [%] | Percent residue in aqueous solution ([1]; Time 48 (time unit not given)) [%] | Percent residue in aqueous solution ([1]; Time 72 (time unit not given)) [%] | Percent residue in aqueous solution ([1]; Time 120 (time unit not given)) [%] | Percent residue in aqueous solution ([1]; Time 168 (time unit not given)) [%] | IC50 [2] [µg/mL] | Structure (SMILES) | other results
1 | 100 | 99.6 | 99.6 | 100 | 100 | 99.9 | 99.7 | 0.92 | N=C(N)NCCCc1ccc(C(=O)NCC(=O)NCCCCNCCCN)cc1 [Compound 7, 10-{N-[4-(3-GPro)Benzoyl]glycyl}-1,5,10-TAD trihydrochloride] | 
2 | 100 | 99.7 | 99.9 | 99.5 | 99.8 | 99.7 | 99.8 | 0.97 | N=C(N)NCc1ccccc1CCCCC(=O)N[C@@H](CO)C(=O)NCCCCNCCCN [Compound 8, 10-{N-[5-(2-GMP)Pentanoyl]-L-ceryl}-1,5,10-TAD trihydrochloride] | 
3 | 100 | 99.9 | 99.6 | 99.6 | 99.9 | 99.6 | 99.8 |  | N=C(N)NCc1cccc(CCC(=O)N[C@@H](CO)C(=O)NCCCCNCCCN)c1 [Compound 5, 10-{N-[3-(3-GMP)Propanoyl]-L-seryl}-1,5,10-TAD trihydrochloride] | 
4 | 100 | 99.5 | 99.8 | 99.7 | 99.7 | 99.5 | 100 |  | N=C(N)Nc1ccc(CCCCC(=O)N[C@@H](CO)C(=O)NCCCCNCCCN)cc1 [Compound 6, 10-{N-[5-(4-GP)Pentanoyl]-L-seryl}-1,5,10-TAD trihydrochloride] | 
5 | 100 | 99.8 | 99.8 | 99.7 | 100 | 99.5 | 99.6 |  | N=C(N)NCc1ccc(CCC(=O)N[C@@H](CO)C(=O)NCCCCNCCCN)c(Cl)c1 [Compound 9, 10-{N-[3-(2-Chloro-4-GMP)propanoyl]-L-seryl}-1,5,10-TAD trihydrochloride] | 

Further lines, the compound ahead of its results:

Row | Structure (SMILES) | Percent residue in aqueous solution ([1]; Time 0 (taken as 100%)) [%] | Percent residue in aqueous solution ([1]; Time 12 (time unit not given)) [%] | Percent residue in aqueous solution ([1]; Time 24 (time unit not given)) [%] | Percent residue in aqueous solution ([1]; Time 48 (time unit not given)) [%] | Percent residue in aqueous solution ([1]; Time 72 (time unit not given)) [%] | Percent residue in aqueous solution ([1]; Time 120 (time unit not given)) [%] | Percent residue in aqueous solution ([1]; Time 168 (time unit not given)) [%] | IC50 [2] [µg/mL] | other results
6 | N=C(N)Nc1ccc(CCCC(=O)NCC(=O)NCCCCNCCCN)cc1 [Compound 2, 10-{N-[4-(4-GP)Butanoyl]glycyl}-1,5,10-TAD trihydrochloride] | 100 | 99.7 | 99.9 | 99.8 | 99.9 | 100 | 99.8 |  | T/C (percent life prolongation) (mouse leukemia L1210 [3]; 0.39 mg/kg/day): 109%; T/C (percent life prolongation) (mouse leukemia L1210 [3]; 0.78 mg/kg/day): 145%; T/C (percent life prolongation) (mouse leukemia L1210 [3]; 1.56 mg/kg/day): 435%; T/C (percent life prolongation) (mouse leukemia L1210 [3]; 3.13 mg/kg/day): 435%; T/C (percent life prolongation) (mouse leukemia L1210 [3]; 6.25 mg/kg/day): 435%; T/C (percent life prolongation) (mouse leukemia L1210 [3]; 12.50 mg/kg/day): 435%; T/C (percent life prolongation) (mouse leukemia L1210 [3]; 25.00 mg/kg/day): 435%; T/C (percent life prolongation) (mouse leukemia L1210 [3]; 50.00 mg/kg/day): 15%
7 | N=C(N)Nc1ccc(CCCC(=O)N[C@@H](CO)C(=O)NCCCCNCCCN)cc1 [Compound 1, 10-{N-[4-(4-GP)Butanoyl]-L-seryl}-1,5,10-TAD trihydrochloride] | 100 | 99.8 | 99.6 | 99.8 | 99.5 | 99.6 | 99.5 |  | Decrease rate of body weight of rats (rats): very small; toxicity (rats; rats): a little; T/C (percent life prolongation) (mouse leukemia L1210 [3]; 0.39 mg/kg/day): 149%; T/C (percent life prolongation) (mouse leukemia L1210 [3]; 0.78 mg/kg/day): 406%; T/C (percent life prolongation) (mouse leukemia L1210 [3]; 1.56 mg/kg/day): 435%; T/C (percent life prolongation) (mouse leukemia L1210 [3]; 3.13 mg/kg/day): 435%; T/C (percent life prolongation) (mouse leukemia L1210 [3]; 6.25 mg/kg/day): 435%; T/C (percent life prolongation) (mouse leukemia L1210 [3]; 12.50 mg/kg/day): 420%; T/C (percent life prolongation) (mouse leukemia L1210 [3]; 25.00 mg/kg/day): 178%
8 | N=C(N)NCCCc1ccc(C(=O)N[C@@H](CO)C(=O)NCCCCNCCCN)cc1 [Compound 4, 10-{N-[4-(3-GPro)Benzoyl]-L-seryl}-1,5,10-TAD trihydrochloride] | 100 | 99.6 | 99.9 | 99.6 | 99.7 | 99.9 | 99.5 | 1.1 | 
9 | N=C(N)NCCCCC(O)CC(=O)NC(O)C(=O)NCCCCNCCCN (stereo not drawn) [Spergualin] | 100 |  |  |  |  |  |  |  | stability in an aqueous solution [4]: unstable; inhibit the growth of Gram-positive microorganisms [5]: ability to inhibit the growth; antineoplastic effects (mouse leukemia L1210 [6]): significant antineoplastic effects; antineoplastic effects (leukemia EL-4): significant antineoplastic effects; antineoplastic effects (Ehrlich carcinoma): significant antineoplastic effects; antineoplastic effects (Sarcoma 180): significant antineoplastic effects
10 | N=C(N)NCc1ccc(CCC(=O)N[C@@H](CO)C(=O)NCCCCNCCCN)cc1 [Compound 3, 10-{N-[3-(4-GMP)Propanoyl]-L-seryl}-1,5,10-TAD trihydrochloride] | 100 | 99.6 | 99.5 | 99.8 | 99.6 | 99.6 | 99.8 |  | 

From patent publication US4556735A, “Spergualin-related compounds having a phenylene group as well as a process for producing the same” (Zaidan Hojin Biseibutsu Kagaku Kenkyukai, priority 1984, dated 1985)
